Source: PMC9516332 (Frontiers in Oncology, 2022)
Read-outs that look alike come from different tables or passages of the source.

Test system: 134 cancer cell lines
Assay: Cell viability assay (ATPlite, 72 hours), IC50 on cancer cell line panel

C[C@H]1Oc2cc(cnc2N)-c2c(nn(C)c2C#N)CN(C)C(=O)c2ccc(F)cc21 [lorlatinib]
IC50 (Homo sapiens, LS174T, read-out: IC50 in cell proliferation assay): 14.2 µM
IC50 (Homo sapiens, LS-411N, read-out: IC50 in cell proliferation assay): 23.6 µM
IC50 (Homo sapiens, LoVo, read-out: IC50 in cell proliferation assay): > 31.6 µM
IC50 (Homo sapiens, MCF7, read-out: IC50 in cell proliferation assay): 17 µM
IC50 (Homo sapiens, MDA-MB-231, read-out: IC50 in cell proliferation assay): > 31.6 µM
IC50 (Homo sapiens, MDA-MB-453, read-out: IC50 in cell proliferation assay): > 31.6 µM
IC50 (Homo sapiens, MDA-MB-468, read-out: IC50 in cell proliferation assay): > 31.6 µM
IC50 (Homo sapiens, MG-63, read-out: IC50 in cell proliferation assay): 8.74 µM
IC50 (Homo sapiens, MIA PaCa-2, read-out: IC50 in cell proliferation assay): > 31.6 µM
IC50 (Homo sapiens, MKN-45, read-out: IC50 in cell proliferation assay): > 31.6 µM
IC50 (Homo sapiens, MOLM-13, read-out: IC50 in cell proliferation assay): 21.1 µM
IC50 (Homo sapiens, MOLT-4, read-out: IC50 in cell proliferation assay): 6.72 µM
IC50 (Homo sapiens, MV4-11, read-out: IC50 in cell proliferation assay): 15.6 µM
IC50 (Homo sapiens, MeWo, read-out: IC50 in cell proliferation assay): > 31.6 µM
IC50 (Homo sapiens, NCCIT, read-out: IC50 in cell proliferation assay): > 31.6 µM
IC50 (Homo sapiens, NCI-H82, read-out: IC50 in cell proliferation assay): 6.06 µM
IC50 (Homo sapiens, NCI-H460, read-out: IC50 in cell proliferation assay): 18.4 µM
IC50 (Homo sapiens, NCI-H661, read-out: IC50 in cell proliferation assay): 6.73 µM
IC50 (Homo sapiens, NCI-H716, read-out: IC50 in cell proliferation assay): 9.52 µM
IC50 (Homo sapiens, NCI-H1650, read-out: IC50 in cell proliferation assay): 23.9 µM
IC50 (Homo sapiens, NCI-H1975, read-out: IC50 in cell proliferation assay): 9.89 µM
IC50 (Homo sapiens, NCI-H2228, read-out: IC50 in cell proliferation assay): 0.000918 µM
IC50 (Homo sapiens, OVCAR-3, read-out: IC50 in cell proliferation assay): > 31.6 µM
IC50 (Homo sapiens, PFSK-1, read-out: IC50 in cell proliferation assay): 7.69 µM
IC50 (Homo sapiens, RL95-2, read-out: IC50 in cell proliferation assay): 0.035 µM
IC50 (Homo sapiens, RPMI-7951, read-out: IC50 in cell proliferation assay): 0.818 µM
IC50 (Homo sapiens, RS4-11, read-out: IC50 in cell proliferation assay): 11.2 µM
IC50 (Homo sapiens, Rec1, read-out: IC50 in cell proliferation assay): 8.26 µM
IC50 (Homo sapiens, SHP77, read-out: IC50 in cell proliferation assay): > 31.6 µM
IC50 (Homo sapiens, SK-BR-3, read-out: IC50 in cell proliferation assay): > 31.6 µM
IC50 (Homo sapiens, SK-N-AS, read-out: IC50 in cell proliferation assay): > 31.6 µM
IC50 (Homo sapiens, SK-N-FI, read-out: IC50 in cell proliferation assay): 21.5 µM
IC50 (Homo sapiens, SK-N-MC, read-out: IC50 in cell proliferation assay): 6.17 µM
IC50 (Homo sapiens, SK-N-SH, read-out: IC50 in cell proliferation assay): 5.69 µM
IC50 (Homo sapiens, SNU-5, read-out: IC50 in cell proliferation assay): > 31.6 µM
IC50 (Homo sapiens, SNU-16, read-out: IC50 in cell proliferation assay): 31.5 µM
IC50 (Homo sapiens, SNU-C2B, read-out: IC50 in cell proliferation assay): > 31.6 µM
IC50 (Homo sapiens, SU-DHL-1, read-out: IC50 in cell proliferation assay): 0.008 µM
IC50 (Homo sapiens, SU-DHL-6, read-out: IC50 in cell proliferation assay): 24.1 µM
IC50 (Homo sapiens, SUP-T1, read-out: IC50 in cell proliferation assay): 23.2 µM
IC50 (Homo sapiens, SW48, read-out: IC50 in cell proliferation assay): 8.62 µM
IC50 (Homo sapiens, SW480, read-out: IC50 in cell proliferation assay): > 31.6 µM
IC50 (Homo sapiens, SW626, read-out: IC50 in cell proliferation assay): 8.56 µM
IC50 (Homo sapiens, SW780, read-out: IC50 in cell proliferation assay): 16 µM
IC50 (Homo sapiens, SW837, read-out: IC50 in cell proliferation assay): > 31.6 µM
IC50 (Homo sapiens, SW872, read-out: IC50 in cell proliferation assay): 6.65 µM
IC50 (Homo sapiens, SW900, read-out: IC50 in cell proliferation assay): 15.1 µM
IC50 (Homo sapiens, SW948, read-out: IC50 in cell proliferation assay): 17 µM
IC50 (Homo sapiens, SW982, read-out: IC50 in cell proliferation assay): 0.052 µM
IC50 (Homo sapiens, SW-620, read-out: IC50 in cell proliferation assay): 17 µM
IC50 (Homo sapiens, T98G, read-out: IC50 in cell proliferation assay): 11.4 µM
IC50 (Homo sapiens, TCC-SUP, read-out: IC50 in cell proliferation assay): > 31.6 µM
IC50 (Homo sapiens, THP-1, read-out: IC50 in cell proliferation assay): > 31.6 µM
IC50 (Homo sapiens, U2OS, read-out: IC50 in cell proliferation assay): 8.64 µM
IC50 (Homo sapiens, U-87 MG, read-out: IC50 in cell proliferation assay): > 31.6 µM
IC50 (Homo sapiens, U-118-MG, read-out: IC50 in cell proliferation assay): > 31.6 µM
IC50 (Homo sapiens, UMUC3, read-out: IC50 in cell proliferation assay): > 31.6 µM
IC50 (Hs766T, read-out: IC50 in cell proliferation assay): > 31.6 µM
IC50 (L-82, read-out: IC50 in cell proliferation assay): 0.00122 µM
IC50 (Rh30, read-out: IC50 in cell proliferation assay): 9.22 µM
